Measured values reported in ChEMBL document CHEMBL1201862, “PubChem BioAssay data set” (2004).
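96-well plates; 48 h exposure; 5 concentrations. Endpoints by linear interpolation between flanking doses. Not reached: highest tested concentration assigned. Here, GI50 denotes the concentration required for 50% inhibition of growth.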 Calls of active or inactive are those of the source. Cut-off read from the data, not from the text of the source: active = GI50 up to about 1.1 µM and inactive = higher.

Legend:
Test in all cases: NCI-60 cell line screen, 48 h
COLO 205 = test system: COLO 205
EKVX = test system: EKVX
HCT-116 = test system: HCT-116
HOP-92 = test system: HOP-92
LOX IMVI = test system: LOX IMVI
MDA-MB-435 = test system: MDA-MB-435
MDA-N = test system: MDA-N
MOLT-4 = test system: MOLT-4
NCI-H460 = test system: NCI-H460
NCI-H522 = test system: NCI-H522
OVCAR-8 = test system: OVCAR-8
SK-MEL-28 = test system: SK-MEL-28
SK-MEL-2 = test system: SK-MEL-2
SN12C = test system: SN12C
SNB-19 = test system: SNB-19
SNB-75 = test system: SNB-75
SR = test system: SR
SW-620 = test system: SW-620
T47D = test system: T47D
UO-31 = test system: UO-31

Row | Compound | GI50 (COLO 205) | GI50 (EKVX) | GI50 (HCT-116) | GI50 (HOP-92) | GI50 (LOX IMVI) | GI50 (MDA-MB-435) | GI50 (MDA-N) | GI50 (MOLT-4) | GI50 (NCI-H460) | GI50 (NCI-H522) | GI50 (OVCAR-8) | GI50 (SK-MEL-28) | GI50 (SK-MEL-2) | GI50 (SN12C) | GI50 (SNB-19) | GI50 (SNB-75) | GI50 (SR) | GI50 (SW-620) | GI50 (T47D) | GI50 (UO-31)
1 | CC(CN(C)C)C(=O)/C=C/c1ccc(Cl)c(Cl)c1 (stereo not given) | 1.3 µM (inactive) | 1.7 µM (inactive) | 1.56 µM (inactive) | 1.68 µM (inactive) | 1.56 µM (inactive) | 1.63 µM (inactive) | 2.07 µM (inactive) | 2.67 µM (inactive) | 2.24 µM (inactive) | 1.55 µM (inactive) | 1.52 µM (inactive) | 3.37 µM (inactive) | 2 µM (inactive) | 1.58 µM (inactive) | 5.43 µM (inactive) | 19.1 µM (inactive) | 1.02 µM (active) | 2.07 µM (inactive) | 24.7 µM (inactive) | 1.69 µM (inactive)
2 | Cc1ccc(S(=O)(=O)n2c3c(c4ccccc42)CCN2C(=O)C(S(=O)(=O)c4ccccc4)=CCC32)cc1 (stereo not given) | 0.236 µM (active) | 0.448 µM (active) | 0.17 µM (active) | 0.149 µM (active) | 0.185 µM (active) | 0.211 µM (active) | 0.192 µM (active) | 0.304 µM (active) | 0.368 µM (active) | 0.259 µM (active) | 0.167 µM (active) | 0.168 µM (active) | 0.217 µM (active) | 0.211 µM (active) | 0.652 µM (active) | 0.157 µM (active) | 0.255 µM (active) | 0.281 µM (active) | 0.154 µM (active) | 0.234 µM (active)
3 | CC(C)CCNC(=O)c1ccc(CNC(=O)/C=C/c2cccc(Oc3ccccc3)c2)cc1 | > 100 µM (inactive) | 23.1 µM (inactive) | 24.5 µM (inactive) | 53.2 µM (inactive) | 37.2 µM (inactive) | 13.6 µM (inactive) | 16.5 µM (inactive) | > 100 µM (inactive) | 34.3 µM (inactive) | 52.5 µM (inactive) | 25.9 µM (inactive) | > 100 µM (inactive) | 31.3 µM (inactive) | 43.7 µM (inactive) | 24.5 µM (inactive) | 34.9 µM (inactive) | 8.77 µM (inactive) | 41.4 µM (inactive) | 79.3 µM (inactive) | 45 µM (inactive)
4 | NS(=O)(=O)c1ccc(/N=N/c2nc3[nH]cnc(=S)c3[nH]2)cc1 | 2.43 µM (inactive) | 2.21 µM (inactive) | 0.568 µM (active) | 11.1 µM (inactive) | 0.236 µM (active) | 0.975 µM (active) | 0.684 µM (active) | 0.134 µM (active) | 0.82 µM (active) | 0.887 µM (active) | 0.593 µM (active) | 10.6 µM (inactive) | 0.971 µM (active) | 1.87 µM (inactive) | > 100 µM (inactive) | 2.05 µM (inactive) | 0.0803 µM (active) | 2.29 µM (inactive) | 1.16 µM (inactive) | 0.849 µM (active)
5 | COc1ccc(NC(=O)CC(=O)n2nc(-c3ccccc3)c(/N=N/c3ccccc3C)c2-c2ccccc2)cc1 | > 61.7 µM (inactive) | 16.3 µM (inactive) | 20.5 µM (inactive) | 15.6 µM (inactive) | 41 µM (inactive) | > 100 µM (inactive) | > 100 µM (inactive) | > 64.1 µM (inactive) | 22.4 µM (inactive) | 23.6 µM (inactive) | 28 µM (inactive) | > 41.7 µM (inactive) | 18.2 µM (inactive) | 53.6 µM (inactive) | 25.2 µM (inactive) | 18.7 µM (inactive) | 35.9 µM (inactive) | 35.4 µM (inactive) | 22.7 µM (inactive) | 35.6 µM (inactive)
6 | C[C@H](CCC(=O)O)[C@H]1CC[C@@]2(C)[C@@H]3C(=O)C[C@H]4C(C)(C)[C@@H](O)CC[C@]4(C)[C@H]3C(=O)C[C@]12C | > 100 µM (inactive) | > 100 µM (inactive) | > 100 µM (inactive) | > 100 µM (inactive) | > 100 µM (inactive) | > 100 µM (inactive) | > 100 µM (inactive) | > 100 µM (inactive) | 62.7 µM (inactive) | > 100 µM (inactive) | > 100 µM (inactive) | > 100 µM (inactive) | > 100 µM (inactive) | > 100 µM (inactive) | > 100 µM (inactive) | > 100 µM (inactive) | > 100 µM (inactive) | > 100 µM (inactive) | > 100 µM (inactive) | 13.9 µM (inactive)
7 | Cn1c(=O)cc(NNc2ccccc2)[nH]c1=O | > 100 µM (inactive) | 36.1 µM (inactive) | 17.8 µM (inactive) | 22.1 µM (inactive) | 14.9 µM (inactive) | 28.2 µM (inactive) | > 100 µM (inactive) | 37.9 µM (inactive) | > 100 µM (inactive) | 15.1 µM (inactive) | 20.9 µM (inactive) | 28.6 µM (inactive) | 36 µM (inactive) | 61.5 µM (inactive) | > 100 µM (inactive) | > 100 µM (inactive) | 10.7 µM (inactive) | 17.5 µM (inactive) | 17.6 µM (inactive) | 83.2 µM (inactive)
8 | CC(CC[C@@]1(O)OC2C[C@H]3[C@@H]4CC[C@H]5CC(OC6OC(CO)C(OC7OC(CO)C(O)C(OC8OCC(O)C(O)C8O)C7OC7OC(CO)C(O)C(O)C7O)C(O)C6O)[C@H](O)CC5(C)[C@H]4CCC3(C)C2[C@@H]1C)COC1OC(CO)C(O)C(O)C1O (stereo not given in full) | 13 µM (inactive) | 2.38 µM (inactive) | 3.67 µM (inactive) | 17.7 µM (inactive) | 8.97 µM (inactive) | 14.8 µM (inactive) | 15.4 µM (inactive) | 2.45 µM (inactive) | 2.09 µM (inactive) | 2.87 µM (inactive) | 9.86 µM (inactive) | 29.2 µM (inactive) | 13.4 µM (inactive) | 2.35 µM (inactive) | 28.3 µM (inactive) | 0.64 µM (active) | 7.85 µM (inactive) | 11.6 µM (inactive) | 12.2 µM (inactive) | 6.84 µM (inactive)
